The text below walks through data of the RepoRT retention time repository (doi:10.1021/acs.analchem.7b00925).

The nature of the data set: HILIC, Merck SeQuant ZIC-HILIC, 100 × 2.1 mm, 3.5 µm, 25 °C, 0.3 mL/min, estimated dead time 0.73 min; A: water + 0.1% formic acid, pH 3; B: acetonitrile + 0.1% formic acid, pH 3; gradient (min/%B) 0/95 1.5/95 13.5/40 15.5/40 29.7/25 33.5/25 34.5/95 41.5/95. The settings on record: stereoisomer not certain.
Turning to `CC(CCC(=O)NCCS(=O)(=O)O)C1CCC2C3C(O)CC4CC(O)CCC4(C)C3CC(O)C12C` (stereo unspecified) [Taurocholic acid], the LC retention time is 4.75 min.

Turning to `O=C(O)C=Cc1cnc[nH]1` [cis-urocanic acid], the LC retention time is 5 min.

Consider `O=C(O)c1c[nH]c2ccccc12` [Indole-3-carboxylic acid], for which the LC retention time was 1.46 min.

Take `O=C(O)C=C(CC(=O)O)C(=O)O` [cis-aconitate]: the LC retention time is 4.23 min.

As to `NC(Cc1c[nH]c2ccc(O)cc12)C(=O)O` (stereo unspecified) [5-hydroxytryptophan], the LC retention time is 7.58 min.

`NCCCC(N)C(=O)O` (stereo unspecified) [Ornithine]: the LC retention time is 12.5 min.

Consider `O=c1[nH]cccc1O` [2,3-Dihydroxypyridine], for which the LC retention time was 4.47 min.

On to `O=C(O)CNC(=O)c1ccco1` [2-furoylglycine], for which the LC retention time was 1.46 min.

For the compound `NC(=O)NCCCC(N)C(=O)O` (stereo unspecified) [Citrulline], the LC retention time is 8.89 min.

`O=C(O)Cc1ccccn1` [2-Pyridylacetic acid]: the LC retention time was 4.67 min.

As to `Nc1nc2c(ncn2C2OC(COP(=O)(O)O)C(O)C2O)c(=O)[nH]1` (stereo unspecified) [Guanosine mono-phosphate], the LC retention time is 8.15 min.

Regarding `CC(NC(=O)C(N)Cc1ccccc1)C(=O)NC(CO)C(=O)O` (stereo not drawn) [Phe-Ala-Ser], the LC retention time was 7.49 min.

Turning to `CNC(=O)c1cccnc1` [N-Methylnicotinamide], the LC retention time is 2.26 min.

Consider `O=C(O)CNC(=O)C1CCCN1` (stereo unspecified) [Proline-glycine], for which the LC retention time was 7.71 min.

In the case of `O=C(O)C1CC(O)CN1C(=O)C1CCCN1` (stereo unspecified) [Proline-hydroxyproline], the LC retention time was 8.4 min.

On to `CC(=O)NC(CCCNC(N)=O)C(=O)O` (stereo unspecified) [Acetylcitrulline], for which the LC retention time was 5.09 min.

On to `Cc1ncc(CO)c(C=O)c1O` [Pyridoxal], for which the LC retention time was 4.94 min.

Take `O=S(=O)(O)CCN1CCOCC1` [MES]: the LC retention time was 6.42 min.

On to `CC(=O)NC(CCC[NH+]=C(N)N)C(=O)[O-]` (stereo unspecified) [N-Acetylarginine], for which the LC retention time was 8.35 min.

Turning to `C[N+](C)(C)[O-]` [Trimethylamine N-oxide], the LC retention time was 6.67 min.

For the compound `OCC(O)C(O)C(O)C(O)CO` (stereo unspecified) [Mannitol], the LC retention time is 6.57 min.

As for `O=C(O)Cc1c[nH]c2ccc(O)cc12` [5-hydroxyindoleacetate], the LC retention time was 3.62 min.

Consider `NC(CCCCNC(CCC(=O)O)C(=O)O)C(=O)O` (stereo unspecified) [Saccharopine], for which the LC retention time is 10.1 min.

With `CNCC(O)c1ccc(O)c(O)c1` (stereo unspecified) [Adrenaline], the LC retention time was 8.61 min.

`CC(C)C(C(=O)O)[N+](C)(C)C` (stereo unspecified) [Valine betaine]: the LC retention time was 5.99 min.

For the compound `O=c1[nH]cnc2c1ncn2C1CC(O)C(CO)O1` (stereo unspecified) [2-deoxyinosine], the LC retention time was 4.69 min.

In the case of `OCC(O)C(O)CO` (stereo unspecified) [Erythritol], the LC retention time is 5.11 min.

With `O=C(O)Cn1ccnc1` [1-Imidazoleacetic acid], the LC retention time is 7.7 min.

`Nc1ccc(O)cc1` [4-Aminophenol]: the LC retention time was 8.1 min.

In the case of `CNCC(O)c1ccc(O)c(OC)c1` (stereo unspecified) [Metanephrine], the LC retention time was 7.06 min.

Regarding `CN[C@H](CC(=O)O)C(=O)O` [N-methyl-D-aspartic acid], the LC retention time was 7.39 min.

Regarding `O=C(O)c1ccncc1` [Isonicotinic acid], the LC retention time is 2.25 min.

For the compound `Nc1ncnc2c1ncn2C1OC(COP(=O)(O)O)C(O)C1O` (stereo unspecified) [Adenosine mono-phosphate], the LC retention time is 8.41 min.

Turning to `NC(N)=NCCC[C@H](N)C(=O)O` [L-Arginine], the LC retention time is 12.2 min.

Consider `CC(N)C(=O)O` (stereo unspecified) [Alanine], for which the LC retention time is 8.06 min.

Turning to `CC(O)C(O)c1cnc2nc(N)[nH]c(=O)c2n1` (stereo unspecified) [Biopterin], the LC retention time was 6.01 min.

Take `OCCNCCO` [Diethanolamine]: the LC retention time is 8.22 min.

With `OCCOCCOCCOCCOCCOCCO` [Hexaethylene glycol], the LC retention time was 1.69 min.

As to `Cn1c(=O)[nH]c2[nH]c(=O)[nH]c2c1=O` [1-methyluric acid], the LC retention time was 4.66 min.

Consider `CC(CCC(=O)O)C1CCC2C3C(O)CC4CC(O)CCC4(C)C3CC(O)C12C` (stereo unspecified) [cholic acid], for which the LC retention time was 1.96 min.

Regarding `CC(CCC(=O)[O-])[N+](C)(C)C` (stereo unspecified) [4-aminovaleric acid betaine], the LC retention time was 5.95 min.

Turning to `NC(N)=NCCCC(=O)O` [4-Guanidinobutanoic acid], the LC retention time is 7.51 min.

For the compound `CCC(NC(=O)CCC(N)C(=O)O)C(=O)NCC(=O)O` (stereo unspecified) [Ophthalmic acid], the LC retention time was 7.85 min.

Regarding `OCCc1ccc(O)c(O)c1` [3,4-dihydroxyphenylethanol], the LC retention time is 2.27 min.

For `O=C(O)c1cc(O)c(O)c(O)c1` [Gallic acid], the LC retention time is 4.67 min.

Consider `Cn1c(=O)c2c([nH]c(=O)n2C)n(C)c1=O` [1,3,7-trimethyluric acid], for which the LC retention time is 1.87 min.

With `CC(C)CC(NC(=O)C(C)NC(=O)C(N)Cc1ccccc1)C(=O)O` (stereo not drawn) [Phe-Ala-Leu], the LC retention time was 5.8 min.

Consider `N[C@H]1C(O)O[C@H](COP(=O)(O)O)[C@@H](O)[C@@H]1O` (stereo partly drawn) [D-glucosamine-6-phosphate], for which the LC retention time was 10 min.

With `CC(=O)NC(CCCC[NH3+])C(=O)[O-]` (stereo not drawn) [N-Alpha-acetyllysine], the LC retention time was 8.42 min.

On to `O=S(=O)(O)CCN1CCN(CCS(=O)(=O)O)CC1` [PIPES], for which the LC retention time was 9.12 min.

With `CC(=O)NC1C(O)CC(O)(C(=O)O)OC1C(O)C(O)CO` (stereo unspecified) [N-Acetylneuraminic acid], the LC retention time is 7.06 min.

`O=C(O)c1ccccc1C(=O)O` [Phthalic acid]: the LC retention time was 2.12 min.

For `Nc1ccccc1C(=O)O` [2-Aminobenzoic acid], the LC retention time is 1.24 min.

As to `COc1cc(/C=C/C(=O)O)ccc1O` [trans-Ferulic acid], the LC retention time is 1.39 min.

For the compound `CN1C(=O)CCC1c1cccnc1` (stereo unspecified) [Cotinine], the LC retention time is 5.16 min.

As to `CNCCc1cnc[nH]1` [Na-methylhistamine], the LC retention time was 15.2 min.

Consider `NCCc1c[nH]c2ccc(O)cc12` [Serotonin], for which the LC retention time was 7.73 min.

In the case of `NC(COCc1ccccc1)C(=O)O` (stereo unspecified) [Benzylserine], the LC retention time is 5.46 min.

Take `NC(CCO)C(=O)O` (stereo unspecified) [Homoserine]: the LC retention time is 8.29 min.

On to `C[N+](C)(C)CCCCC(=O)[O-]` [5-Aminovaleric acid betaine], for which the LC retention time was 6.01 min.

As for `NCCc1cnc[nH]1` [Histamine], the LC retention time is 14.4 min.

In the case of `C[n+]1cccc(C(=O)[O-])c1` [Trigonelline], the LC retention time was 7.26 min.

On to `NC(CCCC(N)C(=O)O)C(=O)O` (stereo unspecified) [2,6-diaminopimelic acid], for which the LC retention time was 11.1 min.

Consider `COC(=O)c1nccnc1N` [Methyl 3-aminopyrazine-2-carboxylic acid], for which the LC retention time is 1.05 min.

Consider `NC(Cc1ccc(O)c(O)c1)C(=O)O` (stereo unspecified) [3,4-dihydroxyphenylalanine], for which the LC retention time was 8.17 min.

`Cc1ccccc1C(=O)NCC(=O)O` [Methylhippurate]: the LC retention time was 1.05 min.
